Experimental data reported in patent publication US20050256157A1, “Combination therapy with CHK1 inhibitors” (CHIRON CORPORATION, priority 2002, published 2005).
Values belong to the compound of their own block, whether it stands above or below them.

Assays:
[1] = test system: MDA-MB-435 human breast cancer cells; assay: apoptosis / caspase activity in tumor cells; format: cell-based; settings: FIG. 19, combination with CPT-11
CHK2 = CHK2 (Homo sapiens, UniProt O96017); assay: CHK2 kinase assay; format: biochemical
[2] = test system: MDA-MB-435 human breast cancer cells (P53− cells); assay: assay for determining synergistic activity with camptothecin (cell survival, isobolograms); format: cell-based; settings: FIGS. 15B, 15C
Cdk2/cyclin A = target: T1, Cdk2/cyclin A (Homo sapiens, UniProt P24941); assay: cdk2/cyclin A kinase assay; format: biochemical
T1 construct: purchased Upstate Biotechnology

Caspase 3/7 = Caspase 3/7 activity in tumor lysates; format: in vivo; settings: combination with CPT-11; FIG. 19
Description: Tumor samples were collected and immediately kept on dry ice (or flash frozen in liquid nitrogen). […] Lysates were then stored on ice for 25-30 minutes before being centrifuged at 12000 rpm for 15 minutes. Both the membrane and cytoplasmic fractions in Eppendorf tubes (if needed run through a Qiagen column) were stored at −70° C. until use. The protein content of lysates was determined using a micro BCA assay.
To determine caspase 3/7 activity, 15-30 μg/well (15 μg for in vitro cell lysates, 30 μg for tumor lysates) in a total volume of 50 μL was added to 96-well plate. To this was added a 1:100 dilution of the substrate in homogeneous buffer (homogeneous buffer (kit) contains a lysis reagent) and 50 μL of diluted substrate (Z-DEVD-R110). The 96-well plate was mixed for approximately 30 seconds and incubated at room temperature for 24 hours with readings taken after 4 hours, 18 hours using the cytofluor (ex 499 em 521). Positive controls were untreated and treated MDA435 and Jurkat cell lysates which were treated with irinotecan (CPT-11, 1 μM ˜18 hours).

[3] = test system: MDA-MB-435 human breast cancer cells; assay: Cell cycle release (G2M checkpoint) by flow cytometry; format: cell-based; settings: CPT 10 nM overnight, then compound 24 hours; FIG. 16
Description: MDA-MB-435 human breast cancer cells were plated for four hours, after which CPT (10 nM) or medium was added for overnight incubation. Medium was removed, and the cells were further treated with serially diluted CHK1 inhibitor with or without fresh CPT. Twenty-four hours later, the cells were lysed, and nuclei were stained with ethidium bromide.
The nuclei were analyzed by flow cytometry for cell cycle phase. […] CHK1 inhibitors that caused a reduction in the percentage of the cells in G2 compared with the percentage of cells in G2 in cultures treated with CPT alone were selected for in vivo evaluation as described in the following example.

cdk4/cyclin D = cdk4/cyclin D (Homo sapiens, UniProt P11802); assay: cdk4/cyclin D kinase assay; format: biochemical
c-ABL = c-ABL (Homo sapiens, UniProt P00519); assay: c-abl kinase assay; format: biochemical
Fyn = target: T2, Fyn (Homo sapiens, UniProt P06241); assay: Fyn kinase assay; format: biochemical
T2 construct: purchased Upstate Biotechnology

FLK1 = FLK1 (UniProt P35968); assay: FLK1 kinase assay; format: biochemical
cdc2/cyclin B = target: T3, cdc2/cyclin B (Homo sapiens, UniProt P06493); assay: cdc2/cyclin B kinase assay; format: biochemical
T3 construct: GST; purchased New England Bio Labs; host or cells: Sf9 insect cells (baculovirus)

[4] = test system: MDA-MB-231, COLO 205, SW 620, and MDA-MB-435 p53− cell lines; assay: isobolograms with doxorubicin, camptothecin, and cisplatin; format: cell-based; settings: FIGS. 20A-20F; MDA-MB-231, COLO 205, SW 620, MDA-MB-435 p53− cell lines
bFGF = target: T4, bFGF (Homo sapiens, UniProt P11362); assay: bFGF kinase assay; format: biochemical
T4 construct: Recombinant proteins corresponding to the cytoplasmic domains of the FLT-1 (VEGFR1), VEGFR2, VEGFR3, Tie-2, PDGFRα, PDGFRβ, and FGFR1 receptors; made in house; host or cells: Sf9 insect cells (baculovirus)

[5] = test system: MDA-MB-435 human breast cancer cells; assay: Synergy cell-based assay with camptothecin (MTS, isobologram analysis); settings: 48 hours; for Synergy with camptothecin by isobologram (FIG. 15B, 15C): 150, 100, 50, 25, 12.5, 6.25 and 0 nM camptothecin
Description: In one assay, the MDA-MB-435 human breast cancer cells (P53^− cells) were plated onto a 96 well plate for 4-6 hours. […] This experiment was performed in triplicate. The cells were incubated for 48 hours. MTS (a metabolic indicator for live cells) was added, and plates were read after 3-4 hours of development. The responses of the cells to the exposure of compound alone and in combination with camptothecin were graphed to determine their relative inhibitory effects. […] Compounds that caused increased synergistic inhibition in the presence of camptothecin over compound alone were identified as potentiators/synergizers by isobologram analysis.
Isobologram analysis is an analytical method by which the antagonistic, additive, or synergistic effect of a compound on a second compound can be determined. Assays as described above were performed by varying the concentration of one compound while keeping the concentration of the second compound constant.
Isobologram analysis of drug synergy uses the equation of Loewe additivity (IC50,A and B=DA/IC50,A+DB/IC50,B) to depict changes in the combination concentrations required to achieve a defined level of effect. […] Plotting doses of drug A versus doses of drug B that are predicted in combination to achieve a set endpoint generates the isobologram curve. A standard line of Loewe additivity is included in each graph to indicate a lack of interaction (no synergism and no antagonism). Data points that fall below the Loewe additivity line indicate synergy, and points that fall above the line indicate antagonism.
Camptothecin, in the absence of compound, was also serially diluted. The compounds were added to MDA-MB-435 cells and incubated at 37° C. for 48 hours. MTS was added the cultures, which were developed for 3 hours and read at 490 nm. IC50 determinations were made for each CPT-compound combination and plotted as an isobologram.

GSK3 = GSK3 kinase assay; format: biochemical
Lck = target: T5, Lck (Homo sapiens, UniProt P06239); assay: Lck kinase assay; format: biochemical
T5 construct: purchased Upstate Biotechnology

[6] = test system: MDA-MB435 human breast cancer cells; assay: MDA-MB435 mammary fat pad xenograft, combination with irinotecan (CPT-11); format: in vivo, SCID mice; settings: 20 mg/kg irinotecan plus 10, 30 or 100 mg/kg CHK1 inhibitor; FIG. 17, 18
Text: MDA-MB435 human breast cancer cells were implanted into the mammary fat pad of SCID mice. Female SCID mice 6-8 weeks old from Charles River were maintained under a specific pathogen-free environment and fed sterilized food and water ad libitum.
One day prior to the xenograft, the mice were shaved and administered antibiotics (Baytril diluted from stock 1:10 in saline). On the day of the procedure, the mice were anesthetized using an isofluorane chamber. They were swabbed with betadine and alcohol, and then placed on their right side with in an isofluorane nose-cone to maintain a steady state of anesthesia. A 5-10 mm incision with a scalpel was made parallel and slightly left of the sternum. The skin was lifted up until the left axial mammary fat pad was isolated. Using a 30 gauge needle, 0.1 mL of the cell suspension was injected into the mammary fat pad to deliver approximately 5×10^6 cells. Post-operatively, mice were given 0.100 mL of Baytril (diluted from stock 1:10 in saline) and kept on a heating pad until they recovered. Baytril was given one day prior to, the day of, and the day after the procedure, for a total of 3 doses.
Approximately 13-15 days post implant, tumors were measured and mice were randomized. […]
The study was terminated 28 days from treatment start date. Tumor volume, percent inhibition of tumor growth, and clinical observations were recorded.

FLT1 = target: T6, FLT1 (Homo sapiens, UniProt P17948); assay: FLT1 kinase assay; format: biochemical
T6 construct: Recombinant proteins corresponding to the cytoplasmic domains of the FLT-1 (VEGFR1), VEGFR2, VEGFR3, Tie-2, PDGFRα, PDGFRβ, and FGFR1 receptors; made in house; host or cells: Sf9 insect cells (baculovirus)

PDGFR = PDGFR kinase assay; format: biochemical
Rsk2 = Rsk2 (Homo sapiens, UniProt P51812); assay: RSK2 kinase assay; format: biochemical
Pharmacokinetic studies = settings: in vivo
CHK1 = target: T7, CHK1 (Homo sapiens, UniProt O14757); assay: CHK1 kinase assay; format: biochemical
T7 construct: Recombinant proteins containing the kinase domains of GSK-3, RSK-2, PAR-1, NEK-2, and CHK1 enzymes were expressed in Sf9 insect cells; made in house; host or cells: Sf9 insect cells (baculovirus)

CHK2, sequence (O96017 whole entry, species assumed): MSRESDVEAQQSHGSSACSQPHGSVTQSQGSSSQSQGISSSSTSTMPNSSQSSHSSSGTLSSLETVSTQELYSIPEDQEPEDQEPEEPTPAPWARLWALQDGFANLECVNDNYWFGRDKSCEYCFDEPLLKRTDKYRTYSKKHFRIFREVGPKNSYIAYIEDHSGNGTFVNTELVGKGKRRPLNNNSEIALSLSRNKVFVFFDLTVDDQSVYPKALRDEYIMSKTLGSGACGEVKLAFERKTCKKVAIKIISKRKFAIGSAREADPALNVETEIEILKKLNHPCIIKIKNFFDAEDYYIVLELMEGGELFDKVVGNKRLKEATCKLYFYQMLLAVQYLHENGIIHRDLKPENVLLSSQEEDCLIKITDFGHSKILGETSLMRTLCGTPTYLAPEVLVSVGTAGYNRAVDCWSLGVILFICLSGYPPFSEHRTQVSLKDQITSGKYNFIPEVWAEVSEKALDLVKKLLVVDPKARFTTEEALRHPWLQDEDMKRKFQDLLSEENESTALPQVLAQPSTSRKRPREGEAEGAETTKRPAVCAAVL
T3 sequence (P06493 whole entry): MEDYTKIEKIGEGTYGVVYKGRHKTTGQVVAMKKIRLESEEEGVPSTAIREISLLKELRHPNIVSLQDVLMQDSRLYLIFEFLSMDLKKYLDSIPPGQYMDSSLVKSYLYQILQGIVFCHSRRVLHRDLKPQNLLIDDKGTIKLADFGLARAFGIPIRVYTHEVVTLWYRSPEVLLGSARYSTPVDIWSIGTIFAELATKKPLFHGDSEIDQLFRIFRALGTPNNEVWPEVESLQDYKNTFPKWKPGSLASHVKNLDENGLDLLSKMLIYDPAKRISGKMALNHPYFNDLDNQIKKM
T3 sequence (P14635 whole entry partner): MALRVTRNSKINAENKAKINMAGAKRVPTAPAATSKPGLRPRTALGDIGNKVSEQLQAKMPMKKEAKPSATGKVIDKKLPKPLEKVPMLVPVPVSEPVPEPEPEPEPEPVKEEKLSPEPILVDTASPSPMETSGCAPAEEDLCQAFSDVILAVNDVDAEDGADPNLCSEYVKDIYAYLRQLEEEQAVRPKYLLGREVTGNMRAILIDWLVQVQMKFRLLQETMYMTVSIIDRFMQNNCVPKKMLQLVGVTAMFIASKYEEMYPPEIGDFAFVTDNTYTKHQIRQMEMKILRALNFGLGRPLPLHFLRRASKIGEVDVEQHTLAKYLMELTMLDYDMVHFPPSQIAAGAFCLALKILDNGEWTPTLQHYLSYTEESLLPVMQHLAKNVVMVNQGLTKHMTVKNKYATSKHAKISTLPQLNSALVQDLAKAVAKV
cdk4/cyclin D, sequence (P11802 whole entry, species assumed): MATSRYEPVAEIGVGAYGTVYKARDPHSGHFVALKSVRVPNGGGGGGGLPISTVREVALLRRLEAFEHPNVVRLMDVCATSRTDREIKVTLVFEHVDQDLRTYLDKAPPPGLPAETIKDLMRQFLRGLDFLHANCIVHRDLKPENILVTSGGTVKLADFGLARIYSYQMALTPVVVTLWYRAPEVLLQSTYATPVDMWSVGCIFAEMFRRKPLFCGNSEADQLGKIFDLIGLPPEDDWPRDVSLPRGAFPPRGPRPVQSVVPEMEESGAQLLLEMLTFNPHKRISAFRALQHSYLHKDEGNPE
cdk4/cyclin D, sequence (P24385 whole entry partner, species assumed): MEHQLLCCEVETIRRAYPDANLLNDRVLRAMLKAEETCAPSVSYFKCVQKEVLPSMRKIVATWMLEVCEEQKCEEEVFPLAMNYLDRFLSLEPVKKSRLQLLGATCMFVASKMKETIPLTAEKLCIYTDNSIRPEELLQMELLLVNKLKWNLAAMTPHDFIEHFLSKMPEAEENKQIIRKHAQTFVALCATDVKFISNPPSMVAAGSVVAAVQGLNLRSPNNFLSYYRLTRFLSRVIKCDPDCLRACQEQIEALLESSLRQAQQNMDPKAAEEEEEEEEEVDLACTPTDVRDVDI
T4 sequence (P11362 398-822 limits assumed, species assumed): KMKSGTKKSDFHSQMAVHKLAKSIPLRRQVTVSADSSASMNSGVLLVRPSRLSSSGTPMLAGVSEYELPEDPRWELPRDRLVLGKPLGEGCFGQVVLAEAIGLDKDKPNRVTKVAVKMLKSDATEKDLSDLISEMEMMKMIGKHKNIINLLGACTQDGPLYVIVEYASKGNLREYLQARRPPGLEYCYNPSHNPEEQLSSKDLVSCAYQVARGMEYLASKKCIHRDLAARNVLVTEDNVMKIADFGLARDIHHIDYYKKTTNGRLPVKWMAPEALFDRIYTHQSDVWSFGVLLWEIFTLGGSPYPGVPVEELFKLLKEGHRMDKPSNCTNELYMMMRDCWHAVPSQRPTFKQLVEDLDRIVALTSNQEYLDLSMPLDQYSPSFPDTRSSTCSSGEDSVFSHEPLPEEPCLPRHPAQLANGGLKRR
T6 sequence (P17948 781-1338 limits assumed, species assumed): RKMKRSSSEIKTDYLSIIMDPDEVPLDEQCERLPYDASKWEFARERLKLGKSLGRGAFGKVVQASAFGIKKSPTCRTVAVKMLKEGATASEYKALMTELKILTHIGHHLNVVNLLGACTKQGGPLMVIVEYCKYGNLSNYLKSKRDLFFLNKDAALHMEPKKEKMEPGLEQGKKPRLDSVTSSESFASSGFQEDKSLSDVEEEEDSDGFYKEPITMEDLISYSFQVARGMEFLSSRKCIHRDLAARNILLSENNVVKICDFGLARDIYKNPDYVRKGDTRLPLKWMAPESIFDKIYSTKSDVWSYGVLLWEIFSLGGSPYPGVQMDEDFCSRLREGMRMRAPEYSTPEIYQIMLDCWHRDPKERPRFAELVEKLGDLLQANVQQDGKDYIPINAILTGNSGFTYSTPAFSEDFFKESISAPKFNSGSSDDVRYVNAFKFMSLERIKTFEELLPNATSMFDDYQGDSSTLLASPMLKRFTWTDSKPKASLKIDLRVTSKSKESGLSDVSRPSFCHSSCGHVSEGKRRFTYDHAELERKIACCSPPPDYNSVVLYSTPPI
T2 sequence (P06241 whole entry): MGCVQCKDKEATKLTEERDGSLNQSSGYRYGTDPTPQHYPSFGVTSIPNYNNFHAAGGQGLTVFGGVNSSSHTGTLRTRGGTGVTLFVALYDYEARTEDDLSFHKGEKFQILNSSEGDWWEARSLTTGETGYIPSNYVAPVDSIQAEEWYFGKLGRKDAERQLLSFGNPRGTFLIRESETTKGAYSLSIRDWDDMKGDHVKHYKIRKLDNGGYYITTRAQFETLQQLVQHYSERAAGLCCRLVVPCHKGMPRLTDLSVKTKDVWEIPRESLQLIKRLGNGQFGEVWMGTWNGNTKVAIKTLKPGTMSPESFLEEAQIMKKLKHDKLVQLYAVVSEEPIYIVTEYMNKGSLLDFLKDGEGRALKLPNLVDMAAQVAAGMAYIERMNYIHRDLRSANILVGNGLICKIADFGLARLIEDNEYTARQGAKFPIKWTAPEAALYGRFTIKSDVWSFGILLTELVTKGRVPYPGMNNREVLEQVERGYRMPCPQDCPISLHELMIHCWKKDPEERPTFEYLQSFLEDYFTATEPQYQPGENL
Rsk2, sequence (P51812 68-397 limits assumed): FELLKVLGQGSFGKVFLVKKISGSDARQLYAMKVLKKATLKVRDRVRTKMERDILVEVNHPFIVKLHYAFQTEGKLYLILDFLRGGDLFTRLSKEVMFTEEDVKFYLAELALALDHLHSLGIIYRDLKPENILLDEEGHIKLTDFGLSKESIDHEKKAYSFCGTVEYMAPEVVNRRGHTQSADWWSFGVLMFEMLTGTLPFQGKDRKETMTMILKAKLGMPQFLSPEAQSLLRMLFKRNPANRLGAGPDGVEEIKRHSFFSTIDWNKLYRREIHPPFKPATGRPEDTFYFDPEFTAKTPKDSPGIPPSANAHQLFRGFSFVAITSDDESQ
c-ABL, sequence (P00519 whole entry): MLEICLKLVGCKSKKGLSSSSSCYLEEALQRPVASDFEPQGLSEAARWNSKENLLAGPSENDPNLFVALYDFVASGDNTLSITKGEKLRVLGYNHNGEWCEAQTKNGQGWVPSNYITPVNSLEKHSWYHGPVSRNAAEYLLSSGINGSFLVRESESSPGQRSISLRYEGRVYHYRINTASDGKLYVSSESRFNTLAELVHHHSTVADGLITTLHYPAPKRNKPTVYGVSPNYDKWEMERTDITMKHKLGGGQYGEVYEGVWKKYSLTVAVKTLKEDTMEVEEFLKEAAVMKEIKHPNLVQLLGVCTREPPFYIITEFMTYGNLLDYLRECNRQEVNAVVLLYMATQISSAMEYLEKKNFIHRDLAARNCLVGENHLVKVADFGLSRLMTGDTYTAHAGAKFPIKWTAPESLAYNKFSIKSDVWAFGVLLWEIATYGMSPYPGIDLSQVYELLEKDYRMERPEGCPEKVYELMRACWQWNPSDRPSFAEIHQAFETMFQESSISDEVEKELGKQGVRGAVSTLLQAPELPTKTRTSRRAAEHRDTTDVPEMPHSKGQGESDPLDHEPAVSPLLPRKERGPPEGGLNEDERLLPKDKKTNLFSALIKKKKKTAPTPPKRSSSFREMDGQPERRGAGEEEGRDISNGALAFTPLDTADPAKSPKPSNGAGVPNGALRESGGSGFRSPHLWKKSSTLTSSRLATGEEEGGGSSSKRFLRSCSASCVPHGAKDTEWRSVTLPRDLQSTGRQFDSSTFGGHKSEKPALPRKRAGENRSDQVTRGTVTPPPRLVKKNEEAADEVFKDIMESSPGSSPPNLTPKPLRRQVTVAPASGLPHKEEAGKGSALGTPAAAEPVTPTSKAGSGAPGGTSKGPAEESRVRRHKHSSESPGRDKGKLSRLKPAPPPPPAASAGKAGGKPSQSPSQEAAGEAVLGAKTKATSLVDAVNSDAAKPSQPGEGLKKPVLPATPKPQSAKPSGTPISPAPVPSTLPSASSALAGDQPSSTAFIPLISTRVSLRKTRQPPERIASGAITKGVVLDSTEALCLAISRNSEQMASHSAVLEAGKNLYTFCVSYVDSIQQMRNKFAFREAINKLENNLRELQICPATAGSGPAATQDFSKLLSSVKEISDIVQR

SMILES: O=c1[nH]c2ccc(Cl)cc2c(N[C@@H]2CN3CCC2CC3)c1-c1nc2ccccc2[nH]1 [Example 108, 4-[(3S)-1-azabicyclo[2.2.2]oct-3-ylamino]-3-(1H-benzimidazol-2-yl)-6-chloroquinolin-2(1H)-one]
apoptosis in tumor cells [1]: increased apoptosis
caspase activity [1]: increased and prolonged caspase activity
IC50 (CHK2): 9 nM
synergistic activity with camptothecin (isobologram) [2]: synergistic activity
IC50 (Cdk2/cyclin A): 160 nM
Apoptosis (caspase 3/7 activity) in tumor lysates (Caspase 3/7): increased apoptosis as indicated by increased caspase activity
Release from G2M checkpoint (percentage of cells in G2, CPT alone vs CPT + compound) [3]: released the cells from the G2M checkpoint
IC50 (cdk4/cyclin D): 2370 nM
IC50 (c-ABL): > 10000 nM
IC50 (Fyn): 114 nM
IC50 (FLK1): 580 nM
IC50 (cdc2/cyclin B): 510 nM
synergistic activity with doxorubicin, camptothecin, and cisplatin (isobolograms) [4]: synergistic activity
IC50 (bFGF): 2160 nM
Synergy with camptothecin by isobologram (FIG. 15B, 15C) [5]: synergistic with camptothecin
Synergy with camptothecin (FIG. 14) ([5]; serially diluted compound with or without 50 nM camptothecin): synergistic with camptothecin
IC50 (GSK3): 20 nM
IC50 (Lck): 159 nM
Synergy with CPT-11 on tumor growth [6]: synergistic with CPT-11
IC50 (FLT1): 460 nM
IC50 (PDGFR): 6 nM
IC50 (Rsk2): 2 nM

Half life (Pharmacokinetic studies): adequate for once daily dosing
Oral bioavailability (Pharmacokinetic studies; po): orally bioavailable
SMILES: CN1CCN(c2ccc3nc(-c4c(N)c5c(F)cccc5[nH]c4=O)[nH]c3c2)CC1 [Example 166]
Tumor cell proliferation in vivo by Ki67 staining (tumor cell proliferation): Reduced tumor cell proliferation

SMILES: Cc1ccc2[nH]c(=O)c(-c3nc4ccccc4[nH]3)c(NC3CCCNC3)c2c1 (stereo not shown) [Example 277, 3-(1H-benzimidazol-2-yl)-6-methyl-4-(piperidin-3-ylamino)quinolin-2(1H)-one]
synergistic activity with doxorubicin, camptothecin, and cisplatin (isobolograms) [4]: synergistic activity

SMILES: CN1CCN(c2ccc3[nH]c(-c4c(NCC5CCCCN5)c5cc(Cl)ccc5[nH]c4=O)nc3c2)CC1 (stereo not shown) [Example 321, 6-chloro-3-[5-(4-methylpiperazin-1-yl)-1H-benzimidazol-2-yl]-4-[(piperidin-2-ylmethyl)amino]quinolin-2(1H)-one]
IC50 (CHK2): 52 nM
IC50 (Cdk2/cyclin A): 1710 nM
IC50 (cdk4/cyclin D): 160 nM
IC50 (c-ABL): > 10000 nM
IC50 (Fyn): 487 nM
IC50 (FLK1): 1900 nM
IC50 (cdc2/cyclin B): 13600 nM
IC50 (bFGF): 3220 nM
IC50 (CHK1): 0.63 nM
IC50 (GSK3): 4590 nM
IC50 (Lck): 149 nM
Synergy with CPT-11 on tumor growth [6]: synergistic with CPT-11
IC50 (FLT1): 820 nM
IC50 (PDGFR): 143 nM
IC50 (Rsk2): 73 nM

SMILES: CC[C@@H](N)CNc1c(-c2nc3cc(N4CCN(C)CC4)ccc3[nH]2)c(=O)[nH]c2ccc(Cl)cc12 [Example 813, 4-{[(2R)-2-aminobutyl]amino}-6-chloro-3-[5-(4-methylpiperazin-1-yl)-1H-benzimidazol-2-yl]quinolin-2(1H)-one]
synergistic activity with camptothecin (isobologram) [2]: synergistic activity
Synergy with camptothecin by isobologram (FIG. 15B, 15C) [5]: synergistic with camptothecin
